Measured values taken from PubChem BioAssay (NCI).
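Grown in 96-well plates, cells were treated for 48 hours with each compound at five concentrations. Insufficient inhibition: endpoint recorded as highest concentration tested. Definition used: TGI = concentration required for complete inhibition of growth.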

Experiments:
Assay in all cases: NCI anticancer screen, dose series, 48 h
UACC-62 melanoma = tested on: UACC-62 melanoma
DMS 114 small cell lung = tested on: DMS 114 small cell lung
UO-31 renal = tested on: UO-31 renal
OVCAR-4 ovarian = tested on: OVCAR-4 ovarian
HOP-62 NSCLC = tested on: HOP-62 NSCLC
NCI-H522 lung = tested on: NCI-H522 lung
SN12C renal = tested on: SN12C renal
MALME-3M melanoma = tested on: MALME-3M melanoma
KM12 colon = tested on: KM12 colon
HOP-18 NSCLC = tested on: HOP-18 NSCLC
LOX IMVI melanoma = tested on: LOX IMVI melanoma
SK-MEL-2 melanoma = tested on: SK-MEL-2 melanoma
M19-MEL melanoma = tested on: M19-MEL melanoma
NCI-H23 lung = tested on: NCI-H23 lung
COLO 205 colon = tested on: COLO 205 colon
SF-268 CNS = tested on: SF-268 CNS
SK-MEL-5 melanoma = tested on: SK-MEL-5 melanoma
M14 melanoma = tested on: M14 melanoma
RPMI-8226 leukemia = tested on: RPMI-8226 leukemia
XF 498 CNS = tested on: XF 498 CNS
UACC-257 melanoma = tested on: UACC-257 melanoma
ACHN renal = tested on: ACHN renal
HT29 colon = tested on: HT29 colon
HCT-15 colon = tested on: HCT-15 colon
HCC-2998 colon = tested on: HCC-2998 colon
DMS 273 small cell lung = tested on: DMS 273 small cell lung
CCRF-CEM leukemia = tested on: CCRF-CEM leukemia
OVCAR-8 ovarian = tested on: OVCAR-8 ovarian
NCI-H460 lung = tested on: NCI-H460 lung
A498 renal = tested on: A498 renal
OVCAR-5 ovarian = tested on: OVCAR-5 ovarian
KM20L2 colon = tested on: KM20L2 colon
SK-OV-3 ovarian = tested on: SK-OV-3 ovarian
SF-295 CNS = tested on: SF-295 CNS
LXFL 529 NSCLC = tested on: LXFL 529 NSCLC
SK-MEL-28 melanoma = tested on: SK-MEL-28 melanoma
MOLT-4 leukemia = tested on: MOLT-4 leukemia
A549 NSCLC = tested on: A549 NSCLC
OVCAR-3 ovarian = tested on: OVCAR-3 ovarian
TK-10 renal = tested on: TK-10 renal
CAKI-1 renal = tested on: CAKI-1 renal
HOP-92 NSCLC = tested on: HOP-92 NSCLC
786-0 renal = tested on: 786-0 renal
SF-539 CNS = tested on: SF-539 CNS
U251 CNS = tested on: U251 CNS
EKVX NSCLC = tested on: EKVX NSCLC
K-562 leukemia = tested on: K-562 leukemia
IGROV1 ovarian = tested on: IGROV1 ovarian
SNB-75 CNS = tested on: SNB-75 CNS
DLD-1 colon = tested on: DLD-1 colon
SW-620 colon = tested on: SW-620 colon
RXF 393 renal = tested on: RXF 393 renal
SNB-78 CNS = tested on: SNB-78 CNS
SNB-19 CNS = tested on: SNB-19 CNS
RXF-631 renal = tested on: RXF-631 renal
HL-60(TB) leukemia = tested on: HL-60(TB) leukemia
HCT-116 colon = tested on: HCT-116 colon
NCI-H226 lung = tested on: NCI-H226 lung

Measured: TGI

NC(N)=NS(=O)(=O)c1ccc(NC(=O)c2cccc3c(Nc4ccc(S(N)(=O)=O)cc4)c4ccccc4nc23)cc1
not listed: RXF-631 renal | HL-60(TB) leukemia | HCT-116 colon | NCI-H226 lung
> 100 µM: all other assays above

O=C1C2=C(c3ccccc31)C(c1ccccc1Cl)N1C(=O)CCSC1=N2 (stereo unspecified)
not listed: HOP-18 NSCLC | LOX IMVI melanoma | NCI-H460 lung | LXFL 529 NSCLC | RXF 393 renal | SNB-78 CNS
> 100 µM: all other assays above
